Where two headings read alike, the source gives them in different places.
Key:
[1] = human, in vivo
Source text: Pharmacokinetics: Blood samples for PK analysis were collected to measure plasma total molybdenum and plasma ultrafiltrate (PUF) molybdenum.

[2] = system: ^64Cu hepatic uptake, biliary copper excretion; conditions: 4 WD patients, FIG. 30
Description: 15 minutes after intravenous administration of ^64Cu, a dynamic PET-MR scan was performed, followed by additional scans at 1, 2, 6, 20, 48, 54, and 68 hours. Venous blood samples were collected for quantitation of radioactivity at multiple time points.
The post-treatment ^64Cu PET-MR study was initiated on the 7th day, with serial PET-MR imaging conducted 1, 2, 6, 20, 48, 54, and 68 hours after intravenous administration of ^64Cu.
The study also assessed the kinetics of ^64Cu in the blood and its distribution among organs of interest. The SUV allows for semiquantitative assessment of copper in a desired volume of interest by measuring the ratio of observed copper activity to the total dose administered.

[3] = in vivo
Source text: (§1) These participants had all intake (food and drink) and output (urine and feces) collected from Day-4 through Day-1 (baseline), from Day 1 through Day 8, and Day 25 through Day 39.

copper = system: copper
Source text: as §1

For Bis-choline tetrathiomolybdate [BC-TTM], which “Daily Mean AUC(0-48 weeks) PUF Mo, Mean” value [1] is on record?
The value was 0.1 mmol/L.

What about the “mean SUV for the other organs after treatment” value [2] of the same substance?
Its value is “did not change”.

And the “participants in whom dose escalation was not carried out due to elevation of liver enzymes” value [3]?
Its value is 2 participants.

What about the “Increase from Baseline in Directly Measured NCC, Mean (SD)” value (“Increase from Baseline … (SD)” for short) (copper; Study 204, Day 1, 2 Hours Post-Dose) of the same substance?
The value was 0.5004 (0.7105) μmol/L.

What about the “Increase from Baseline … (SD)” value (copper; Study 204, Day 1, 4 Hours Post-Dose) of the same substance?
Its value is 1.96 (1.804) μmol/L.

And the “Increase from Baseline … (SD)” value (copper; Study 204, Day 1, 5 Hours Post-Dose)?
Its value is 2.719 (2.534) μmol/L.

And the “Increase from Baseline … (SD)” value (copper; Study 204, Day 1, 6 Hours Post-Dose)?
Its value is 2.324 (2.086) μmol/L.

And the “Increase from Baseline … (SD)” value (copper; Study 204, Day 1, 8 Hours Post-Dose)?
The value was 2.402 (2.183) μmol/L.

What about the “Increase from Baseline … (SD)” value (copper; Study 204, Day 1, 12 Hours Post-Dose) of the same substance?
The value was 1.725 (1.575) μmol/L.

What about the “Increase from Baseline … (SD)” value (copper; Study 204, Day 1, 24 Hours Post-Dose) of the same substance?
Its value is 1.063 (1.074) μmol/L.

And the “Increase from Baseline … (SD)” value (copper; Study 204, Day 4, Pre-Dose)?
The value was 2.677 (1.297) μmol/L.

What about the “Increase from Baseline … (SD)” value (copper; Study 204, Day 5, Pre-Dose) of the same substance?
Its value is 3.144 (1.37) μmol/L.

And the “Increase from Baseline … (SD)” value (copper; Study 204, Day 6, Pre-Dose)?
Its value is 3.574 (1.57) μmol/L.

What about the “Increase from Baseline … (SD)” value (copper; Study 204, Day 7, Pre-Dose) of the same substance?
The value was 3.7 (1.709) μmol/L.

And the “Increase from Baseline … (SD)” value (copper; Study 204, Day 25, 2 Hours Post-Dose)?
Its value is 2.551 (1.063) μmol/L.

What about the “Increase from Baseline … (SD)” value (copper; Study 204, Day 25, 4 Hours Post-Dose) of the same substance?
The value was 3.443 (2.008) μmol/L.

And the “Increase from Baseline … (SD)” value (copper; Study 204, Day 25, 5 Hours Post-Dose)?
The value was 3.38 (2.478) μmol/L.

What about the “Increase from Baseline … (SD)” value (copper; Study 204, Day 25, 6 Hours Post-Dose) of the same substance?
The value was 4.44 (2.949) μmol/L.

What about the “Increase from Baseline … (SD)” value (copper; Study 204, Day 25, 8 Hours Post-Dose) of the same substance?
Its value is 5.101 (2.491) μmol/L.

What about the “Increase from Baseline … (SD)” value (copper; Study 204, Day 25, 12 Hours Post-Dose) of the same substance?
The value was 4.917 (2.463) μmol/L.

What about the “Increase from Baseline … (SD)” value (copper; Study 204, Day 25, 24 Hours Post-Dose) of the same substance?
Its value is 3.438 (1.754) μmol/L.

What about the “Increase from Baseline … (SD)” value (copper; Study 204, Day 25, −0.5 Hours) of the same substance?
The value was 2.121 (0.611) μmol/L.

What about the “Increase from Baseline … (SD)” value (copper; Study 204, Day 27, Pre-Dose) of the same substance?
The value was 2.767 (1.755) μmol/L.

What about the “Increase from Baseline … (SD)” value (copper; Study 204, Day 28, Pre-Dose) of the same substance?
The value was 2.327 (1.376) μmol/L.

And the “Increase from Baseline … (SD)” value (copper; Study 204, Day 29, 2 Hours Post-Dose)?
Its value is 2.814 (0.884) μmol/L.

What about the “Increase from Baseline … (SD)” value (copper; Study 204, Day 29, 4 Hours Post-Dose) of the same substance?
Its value is 3.38 (1.494) μmol/L.

What about the “Increase from Baseline … (SD)” value (copper; Study 204, Day 29, 5 Hours Post-Dose) of the same substance?
Its value is 4.078 (1.939) μmol/L.

What about the “Increase from Baseline … (SD)” value (copper; Study 204, Day 29, 6 Hours Post-Dose) of the same substance?
The value was 4.686 (2.237) μmol/L.

And the “Increase from Baseline … (SD)” value (copper; Study 204, Day 29, 8 Hours Post-Dose)?
Its value is 5.305 (2.311) μmol/L.

What about the “Increase from Baseline … (SD)” value (copper; Study 204, Day 29, 12 Hours Post-Dose) of the same substance?
Its value is 4.749 (2.205) μmol/L.

And the “Increase from Baseline … (SD)” value (copper; Study 204, Day 29, 24 Hours Post-Dose)?
The value was 3.543 (1.397) μmol/L.

What about the “Increase from Baseline … (SD)” value (copper; Study 204, Day 29, −0.5 Hours) of the same substance?
The value was 2.662 (1.209) μmol/L.

What about the “Increase from Baseline … (SD)” value (copper; Study 204, Day 31, Pre-Dose) of the same substance?
Its value is 4.121 (2.779) μmol/L.

What about the “Increase from Baseline … (SD)” value (copper; Study 204, Day 32, Pre-Dose (N=1)) of the same substance?
Its value is 8.131 (NA) μmol/L.

What about the “Increase from Baseline … (SD)” value (copper; Study 204, Day 33, Pre-Dose) of the same substance?
Its value is 4.231 (4.114) μmol/L.

What about the “Increase from Baseline … (SD)” value (copper; Study 204, Day 34, Pre-Dose) of the same substance?
Its value is 4.103 (3.872) μmol/L.

And the “Increase from Baseline … (SD)” value (copper; Study 204, Day 35, Pre-Dose)?
Its value is 4.49 (4.526) μmol/L.

What about the “Increase from Baseline … (SD)” value (copper; Study 204, Day 36, Pre-Dose) of the same substance?
Its value is 3.465 (3.016) μmol/L.

And the “Increase from Baseline … (SD)” value (copper; Study 204, Day 37, Pre-Dose)?
Its value is 4.168 (4.069) μmol/L.

And the “Increase from Baseline … (SD)” value (copper; Study 204, Day 38, Pre-Dose (N=1))?
Its value is 7.643 (NA) μmol/L.

And the “Increase from Baseline … (SD)” value (copper; Study 204, Day 39, 2 Hours Post-Dose)?
The value was 3.816 (3.943) μmol/L.

What about the “Increase from Baseline … (SD)” value (copper; Study 204, Day 39, 4 Hours Post-Dose) of the same substance?
The value was 5.578 (5.922) μmol/L.

And the “Increase from Baseline … (SD)” value (copper; Study 204, Day 39, 5 Hours Post-Dose)?
Its value is 6.26 (6.245) μmol/L.

And the “Increase from Baseline … (SD)” value (copper; Study 204, Day 39, 6 Hours Post-Dose)?
The value was 6.659 (5.704) μmol/L.

And the “Increase from Baseline … (SD)” value (copper; Study 204, Day 39, 8 Hours Post-Dose)?
Its value is 7.32 (6.096) μmol/L.

What about the “Increase from Baseline … (SD)” value (copper; Study 204, Day 39, 12 Hours Post-Dose) of the same substance?
The value was 6.554 (4.695) μmol/L.

What about the “Increase from Baseline … (SD)” value (copper; Study 204, Day 39, 24 Hours Post-Dose) of the same substance?
Its value is 4.545 (3.677) μmol/L.

What about the “Increase from Baseline … (SD)” value (copper; Study 204, Day 39, −0.5 Hours) of the same substance?
Its value is 3.412 (3.688) μmol/L.

From patent publication US20250082674A1, “METHODS OF TREATING COPPER METABOLISM-ASSOCIATED DISEASES OR DISORDERS” (priority 2021, published 2025)
